Activity calls are given as the source filed them.
How the values were obtained:
P388 = assay: cells; assay type: functional; conditions: Mus musculus
SN12K1 = assay: cells; assay type: functional; conditions: Homo sapiens
[1] = luciferase reporter signal suppression in cells – H4 neuroglioma cells, luminescence, dose response (AID 1990); assay type: functional, cell-based
[2] = Luminescence Cell-Based Dose Retest to Confirm Inhibitors of Cancer Stem Cells. [Related pubchem assays (depositor defined):AID2717, AID2721]; assay type: functional; conditions: Homo sapiens
[3] = alpha-synuclein stem-loop luciferase translation blockers – H4 neuroglioma cells, luminescence, confirmation (AID 1988); assay type: functional, cell-based
[4] = HEK-293T viability loss after treatment – luminescence, T-cell screen hits, cytotoxicity control for TCR NF-kB inhibitor project, dose response (AID 489026); assay type: functional, cell-based;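 further: cells exposed to compound about 14 hours before the viability readout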
[5] = Luminescence Cell-Based Dose Response HTS to Identify Inhibitors of 5'UTR Stem-Loop Driven Prion Protein mRNA Translation in H4 Neuroglioblastoma Cells. [Related pubchem assays: 1827 (Project Summary), 1813 (Primary HTS)]; assay type: functional
Fatty acid synthase [6] = molecular target: T1, Fatty acid synthase (Homo sapiens, UniProt P49327); assay: inhibition of human FAS-TE enzyme activity – biochemical, endpoint fluorescence intensity, uHTS hits, dose response (AID 624327); assay type: functional;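 further: fluorescence from hydrolysis of an O-methyl fluorescein acyl ester substrate by the enzyme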
T1 sequence (P49327 whole entry): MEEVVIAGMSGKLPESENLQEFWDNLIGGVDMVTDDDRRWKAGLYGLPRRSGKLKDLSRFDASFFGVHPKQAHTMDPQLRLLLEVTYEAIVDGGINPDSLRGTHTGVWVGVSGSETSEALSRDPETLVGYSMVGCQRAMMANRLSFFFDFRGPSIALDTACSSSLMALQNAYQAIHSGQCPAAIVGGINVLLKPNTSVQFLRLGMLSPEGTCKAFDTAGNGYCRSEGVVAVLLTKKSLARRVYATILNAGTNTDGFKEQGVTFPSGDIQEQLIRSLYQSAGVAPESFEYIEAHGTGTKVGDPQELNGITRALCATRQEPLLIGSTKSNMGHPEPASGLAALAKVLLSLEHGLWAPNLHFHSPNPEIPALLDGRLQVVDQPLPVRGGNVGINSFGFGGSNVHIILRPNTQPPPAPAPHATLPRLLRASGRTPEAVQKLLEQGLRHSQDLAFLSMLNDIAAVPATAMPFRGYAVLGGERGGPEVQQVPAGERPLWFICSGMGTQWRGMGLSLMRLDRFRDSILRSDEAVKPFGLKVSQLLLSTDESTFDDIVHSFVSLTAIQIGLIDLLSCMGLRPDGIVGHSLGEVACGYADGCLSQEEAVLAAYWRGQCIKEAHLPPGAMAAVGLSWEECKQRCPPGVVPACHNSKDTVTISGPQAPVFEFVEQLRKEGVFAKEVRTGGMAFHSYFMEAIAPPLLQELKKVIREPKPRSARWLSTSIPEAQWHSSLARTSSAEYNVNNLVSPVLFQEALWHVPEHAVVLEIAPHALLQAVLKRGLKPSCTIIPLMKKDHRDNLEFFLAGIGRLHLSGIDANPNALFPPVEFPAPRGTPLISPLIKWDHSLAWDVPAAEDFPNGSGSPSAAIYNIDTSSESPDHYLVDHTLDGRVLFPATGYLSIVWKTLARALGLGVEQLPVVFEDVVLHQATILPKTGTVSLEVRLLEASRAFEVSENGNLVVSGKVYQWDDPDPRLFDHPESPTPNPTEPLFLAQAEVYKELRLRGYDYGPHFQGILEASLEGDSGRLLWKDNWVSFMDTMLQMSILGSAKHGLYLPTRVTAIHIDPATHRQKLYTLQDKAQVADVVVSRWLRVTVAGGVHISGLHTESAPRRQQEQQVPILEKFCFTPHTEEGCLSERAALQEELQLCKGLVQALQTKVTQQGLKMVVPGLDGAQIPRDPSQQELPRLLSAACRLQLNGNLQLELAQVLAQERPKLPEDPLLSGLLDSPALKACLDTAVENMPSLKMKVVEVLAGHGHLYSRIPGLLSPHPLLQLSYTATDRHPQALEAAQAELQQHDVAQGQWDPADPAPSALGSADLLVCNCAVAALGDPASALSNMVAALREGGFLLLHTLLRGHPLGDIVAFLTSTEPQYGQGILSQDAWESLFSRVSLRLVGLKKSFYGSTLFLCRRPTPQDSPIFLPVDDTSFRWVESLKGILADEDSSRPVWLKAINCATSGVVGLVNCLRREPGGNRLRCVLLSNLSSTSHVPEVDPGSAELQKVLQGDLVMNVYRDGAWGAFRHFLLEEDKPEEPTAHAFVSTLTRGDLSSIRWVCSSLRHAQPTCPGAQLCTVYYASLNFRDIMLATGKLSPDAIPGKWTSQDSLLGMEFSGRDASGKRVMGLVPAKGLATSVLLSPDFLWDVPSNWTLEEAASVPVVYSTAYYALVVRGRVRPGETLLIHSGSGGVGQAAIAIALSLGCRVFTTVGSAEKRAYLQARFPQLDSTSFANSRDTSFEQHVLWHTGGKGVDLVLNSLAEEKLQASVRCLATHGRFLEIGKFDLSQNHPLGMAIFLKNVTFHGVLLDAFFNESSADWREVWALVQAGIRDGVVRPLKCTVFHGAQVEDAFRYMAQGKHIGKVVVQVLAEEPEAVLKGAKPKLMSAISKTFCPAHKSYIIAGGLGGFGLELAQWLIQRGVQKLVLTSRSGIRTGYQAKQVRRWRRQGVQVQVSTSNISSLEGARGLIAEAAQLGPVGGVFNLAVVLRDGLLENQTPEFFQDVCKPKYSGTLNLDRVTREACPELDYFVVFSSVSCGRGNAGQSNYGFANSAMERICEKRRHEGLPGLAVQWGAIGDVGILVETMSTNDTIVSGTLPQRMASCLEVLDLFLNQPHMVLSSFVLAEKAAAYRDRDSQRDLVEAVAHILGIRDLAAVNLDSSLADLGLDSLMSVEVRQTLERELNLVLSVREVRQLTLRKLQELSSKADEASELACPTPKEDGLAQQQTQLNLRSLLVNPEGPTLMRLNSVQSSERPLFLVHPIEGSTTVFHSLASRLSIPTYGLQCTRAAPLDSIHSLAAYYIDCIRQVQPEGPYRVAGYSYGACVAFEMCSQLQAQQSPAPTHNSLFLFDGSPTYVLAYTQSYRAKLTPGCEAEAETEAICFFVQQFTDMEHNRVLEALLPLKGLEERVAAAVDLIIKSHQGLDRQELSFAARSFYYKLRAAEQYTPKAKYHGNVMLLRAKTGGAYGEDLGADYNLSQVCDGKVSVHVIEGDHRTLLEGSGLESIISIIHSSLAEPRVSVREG

Fatty acid synthase [7] = molecular target: T1, Fatty acid synthase; assay: inhibition of human FAS-TE enzyme activity – biochemical, kinetic fluorescence intensity, dose response (AID 624326); assay type: functional;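 further: rate of fluorescence rise from hydrolysis of a fluorogenic O-methyl fluorescein ester substrate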
P388/ADR = assay: cells; assay type: functional; conditions: Mus musculus
[8] = Vero E6 cell cytotoxicity, dose response, cytotoxicity control for non-replicating M. tuberculosis project, secondary assay (AID 492998); assay type: functional, VeroE6; conditions: Vero C1008
Vero = assay: viability of Vero cells under compound – cytotoxicity control for flavivirus capping enzyme inhibitors (AID 588742); assay type: functional; conditions: Chlorocebus sabaeus
cells = assay type: functional
[9] = THP-1 cell cytotoxicity, dose response, cytotoxicity control for non-replicating M. tuberculosis project (AID 489025); assay type: functional
[10] = microbe, parasite or virus in culture; assay type: functional; conditions: Mycobacterium tuberculosis
[11] = HepG2 cell cytotoxicity, dose response, cytotoxicity control for non-replicating M. tuberculosis project (AID 489018); assay type: functional; conditions: Mycobacterium tuberculosis
[12] = molecular target: T2, Zinc finger protein mex-5 (Caenorhabditis elegans, UniProt Q9XUB2); assay: potency of MEX-5 RNA-binding blockers – biochemical, C. elegans, fluorescence polarization, dose response (AID 1960)
T2 sequence (Q9XUB2 whole entry): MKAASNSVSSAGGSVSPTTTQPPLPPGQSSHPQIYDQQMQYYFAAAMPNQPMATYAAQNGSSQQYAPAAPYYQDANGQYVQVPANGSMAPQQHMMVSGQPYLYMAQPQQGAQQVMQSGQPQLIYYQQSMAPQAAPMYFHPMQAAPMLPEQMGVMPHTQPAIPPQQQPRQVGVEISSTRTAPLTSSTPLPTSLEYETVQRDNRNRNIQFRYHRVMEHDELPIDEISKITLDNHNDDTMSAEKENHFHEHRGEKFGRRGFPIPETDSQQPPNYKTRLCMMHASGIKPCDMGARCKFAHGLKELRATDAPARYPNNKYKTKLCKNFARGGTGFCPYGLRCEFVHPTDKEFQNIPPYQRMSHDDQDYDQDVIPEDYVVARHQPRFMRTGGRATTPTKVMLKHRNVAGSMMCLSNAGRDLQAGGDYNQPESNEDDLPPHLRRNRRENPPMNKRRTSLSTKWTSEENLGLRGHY

[13] = molecular target: T3, RNA-binding protein pos-1 (Caenorhabditis elegans, UniProt G5EF15); assay: disruptors of C. elegans POS-1 RNA interaction – biochemical, fluorescence polarization, dose response (AID 1964);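 further: purified POS-1 fused to maltose binding protein made in E. coli; potency of compounds blocking POS-1 binding to fluorescent RNA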
T3 sequence (G5EF15 whole entry): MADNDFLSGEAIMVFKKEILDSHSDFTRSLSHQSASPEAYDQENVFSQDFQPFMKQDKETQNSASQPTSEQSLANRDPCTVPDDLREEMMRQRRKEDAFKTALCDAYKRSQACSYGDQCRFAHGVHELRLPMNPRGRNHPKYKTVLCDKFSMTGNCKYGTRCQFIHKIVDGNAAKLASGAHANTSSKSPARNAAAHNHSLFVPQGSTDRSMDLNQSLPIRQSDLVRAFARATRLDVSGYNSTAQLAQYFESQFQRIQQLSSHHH

[14] = molecular target: Heat shock protein HSP 90-alpha (Homo sapiens, UniProt P07900); assay type: functional, organism-based
Protein skinhead-1 = molecular target: T4, Protein skinhead-1 (Caenorhabditis elegans, UniProt P34707); assay type: functional
T4 sequence (P34707 whole entry): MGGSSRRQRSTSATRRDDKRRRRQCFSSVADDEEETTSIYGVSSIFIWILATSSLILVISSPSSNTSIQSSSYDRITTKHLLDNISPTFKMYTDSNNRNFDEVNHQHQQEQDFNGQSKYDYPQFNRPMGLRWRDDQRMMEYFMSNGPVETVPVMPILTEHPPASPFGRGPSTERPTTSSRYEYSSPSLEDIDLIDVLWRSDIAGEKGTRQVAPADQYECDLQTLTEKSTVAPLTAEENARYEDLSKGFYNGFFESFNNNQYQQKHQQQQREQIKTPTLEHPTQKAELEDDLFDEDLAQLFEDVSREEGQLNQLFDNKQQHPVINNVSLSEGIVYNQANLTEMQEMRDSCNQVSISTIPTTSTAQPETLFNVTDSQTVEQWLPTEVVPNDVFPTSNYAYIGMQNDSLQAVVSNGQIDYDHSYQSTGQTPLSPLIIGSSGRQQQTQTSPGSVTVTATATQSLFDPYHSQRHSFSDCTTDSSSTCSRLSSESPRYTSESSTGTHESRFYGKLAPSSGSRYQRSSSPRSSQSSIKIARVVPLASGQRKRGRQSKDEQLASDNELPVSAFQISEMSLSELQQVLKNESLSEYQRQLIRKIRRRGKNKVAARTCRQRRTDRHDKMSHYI

Protein Wnt-3a = Protein Wnt-3a (Mus musculus, UniProt P27467); assay: antagonism of Wnt3a pathway luciferase reporter – Wnt-LIGHT cells, luminescence, selectivity assay for Gli-SUFU antagonist project, dose response (AID 651570); assay type: functional; conditions: read-out: IC50_Mean;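 further: Wnt-LIGHT reporter cells stimulated with conditioned medium from Wnt3a-producing cells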
Protein Wnt-3a, sequence (P27467 whole entry): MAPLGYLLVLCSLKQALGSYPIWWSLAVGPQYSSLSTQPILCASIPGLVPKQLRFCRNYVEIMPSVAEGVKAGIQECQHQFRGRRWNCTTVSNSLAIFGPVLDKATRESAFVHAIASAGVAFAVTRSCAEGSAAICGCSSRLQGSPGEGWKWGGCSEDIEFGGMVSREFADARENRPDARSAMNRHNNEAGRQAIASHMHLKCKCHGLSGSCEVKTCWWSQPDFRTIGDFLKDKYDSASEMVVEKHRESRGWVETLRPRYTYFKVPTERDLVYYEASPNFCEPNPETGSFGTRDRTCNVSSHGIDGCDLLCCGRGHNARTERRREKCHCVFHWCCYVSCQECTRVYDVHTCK

[15] = non-specific 3'UTR reporter inhibition in Clone20-Shn3RL – cell-based, Renilla luciferase, cherry-picked, counter-screen for Shn3 inhibitor project, dose response (AID 624133); assay type: functional
INS1 = assay: INS-1E survival protection against cytokine death – cell-based, luminescence, retest, dose response (AID 449756); assay type: functional; conditions: Rattus norvegicus;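 further: cell death triggered by IL-1 beta plus TNF-alpha plus IFN-gamma mixture; protective hits raise ATP signal compared with cytokine alone wells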
[16] = reduction of Shn3 3'UTR-driven luciferase in osteoblasts – cell-based, Clone20 osteoblasts, firefly luciferase, cherry-picked, dose response (AID 624132); assay type: functional;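 further: firefly luciferase luminescence from reporter carrying the Shn3 3'UTR in osteoblasts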
[17] = loss of viability in HepG2 cells – cell-based, CellTiter-Glo, cherry-picked, cytotoxicity control for Shn3 inhibitor project, dose response (AID 624134); assay type: functional

O=S(=O)(O)c1cc(S(=O)(=O)O)c2cc(/N=N/c3ccc(/N=N/c4ccc(/C=C/c5ccc(/N=[N+](/[O-])c6ccc(/C=C/c7ccc(/N=N/c8ccc(/N=N/c9ccc%10cc(S(=O)(=O)O)cc(S(=O)(=O)O)c%10c9)cc8)cc7S(=O)(=O)O)c(S(=O)(=O)O)c6)cc5S(=O)(=O)O)c(S(=O)(=O)O)c4)cc3)ccc2c1
GI50 (P388): 14.7 µM (inactive)
GI50 (SN12K1): > 95.1 µM (inactive)

O=C1CC(c2cc(Br)ccc2F)c2cc3c(cc2N1)CCC3 (stereo not given)
EC50 [1]: 7.6 µM (active)
AC50 [2]: < 0.16 µM (active)
EC50 [3]: 1.48 µM (inconclusive)
IC50 [4]: > 80 µM (inactive)
EC50 [5]: 2.01 µM (active)

Cc1ccc(O)c(NC(=O)c2cc([N+](=O)[O-])ccc2Cl)c1
IC50 (Fatty acid synthase [6]): 13.4 µM (active)
IC50 (Fatty acid synthase [7]): 15.8 µM (active)

COC(=O)NC1C(C)OC(OC2C/C=C(/C)C3C=CC4C(OC5CC(OC6CC(O)C(OC7CC(O)C(OC)C(C)O7)C(C)O6)C(O)C(C)O5)C(C)CC(C)C4C3(C)C(=O)C3=C(O)C4(CC(C)C(CO)=CC4/C=C\2C)OC3=O)CC1(C)[N+](=O)[O-] (stereo not given)
GI50 (P388): 3.55 µM (inactive)
GI50 (P388/ADR): 5.56 µM (inactive)
GI50 (SN12K1): 6.21 µM (inactive)

C/C(=N\NC(=O)c1cc2ccccc2cc1O)c1ccc(C)o1
CC50 [8]: 16 µM (active)
CC50 (Vero): 32 µM (active)
IC50 (cells): 6.26 µM (active)
CC50 [9]: 21.9 µM (active)
CC50 [10]: 22.7 µM (active)
CC50 [11]: > 20 µM (active)

S=P1(Sc2ccccc2)Oc2ccc3ccccc3c2-c2c(ccc3ccccc23)O1
GI50 (P388): > 100 µM (inactive)
GI50 (P388/ADR): > 100 µM (inactive)
GI50 (SN12K1): > 100 µM (inactive)

Cc1ccc(/C=C/c2nc3ccccc3[nH]2)o1
CC50 (Vero): > 40 µM (active)

CCCCN1C(=O)/C(=C/C=C2\Oc3ccccc3N2CC)SC1=S
EC50 [12]: > 300 µM (not active)
EC50 [13]: 48.2 µM (active)
AC50 [14]: 171 µM (active)

COC(=O)c1ccc(CSc2nc3ccccc3o2)cc1
IC50 (Protein skinhead-1): 41.7 µM (active)

Cn1c(=O)c2c(nc(NCCOc3ccc(C(C)(C)C)cc3)n2C)n(C)c1=O
IC50 (Protein Wnt-3a): 1.2 µM (active)

Cc1c(C(C)C)c(=O)n(-c2ccc(S(=O)(=O)NCc3ccccc3)cc2)n1C
AC50 [15]: 1.96 µM (active)
AC50 (INS1): 2.71 µM (active)
AC50 [16]: 1.18 µM (active)
AC50 [17]: 2.48 µM (active)
IC50 (Protein Wnt-3a): 5.02 µM (active)

Nc1nc(N)c2cc(CNc3ccc(C(=O)NC(CC(=O)O)C(=O)O)c(Cl)c3)ccc2n1 (stereo not given)
GI50 (P388): < 0.01 µM (active)
GI50 (P388/ADR): < 0.01 µM (active)
GI50 (SN12K1): 0.014 µM (active)
